Experimental data reported in the supplement of paper PMC11061612.

Key:
Test in all cases: Bliss excess, mean over the matrix (fraction); higher = more synergy
[1] = system: Hs-746T (Gastric Carcinoma)
How it was run: (§1)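 After 24 hours at 37°C and 5% CO2 in 1536-well plates, cells in DMEM/F12 or RPMI plus 10% FBS received two-drug dose matrices for 72 hours. Viability came from CellTiter-Glo 2.0 luminescence and was scaled as inhibition, anchored at 0 by vehicle wells and at 1 by blank wells. Combination Emax is taken as the second-highest inhibition in the matrix, and Bliss excess as the observed combination effect less EA + EB − EA·EB, with EA and EB the single-agent effects.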

[2] = system: CAL-33 (Oral Cavity Carcinoma)
How it was run: as §1

[3] = system: NCI-H524 (Small Cell Lung Carcinoma)
How it was run: as §1

[4] = system: EW-11 (Ewing's Sarcoma)
How it was run: as §1

[5] = system: ALL-PO (B-Lymphoblastic Leukemia)
How it was run: as §1

[6] = system: NCI-H1568 (Lung Adenocarcinoma)
How it was run: as §1

[7] = system: A673 (Ewing's Sarcoma)
How it was run: as §1

[8] = system: NCI-H2722 (Mesothelioma)
How it was run: as §1

[9] = system: BE2-M17 (Neuroblastoma)
How it was run: as §1

[10] = system: LCLC-97TM1 (Non-Small Cell Lung Carcinoma)
How it was run: as §1

[11] = system: YAPC (Pancreatic Carcinoma)
How it was run: as §1

[12] = system: ESS-1 (Other Solid Carcinomas)
How it was run: as §1

[13] = system: BPH-1 (Non-Cancerous)
How it was run: as §1

[14] = system: WSU-NHL (B-Cell Non-Hodgkin's Lymphoma)
How it was run: as §1

[15] = system: OE21 (Esophageal Squamous Cell Carcinoma)
How it was run: as §1

[16] = system: TGBC1TKB (Biliary Tract Carcinoma)
How it was run: as §1

[17] = system: HuH-7 (Hepatocellular Carcinoma)
How it was run: as §1

[18] = system: Detroit562 (Head and Neck Carcinoma)
How it was run: as §1

[19] = system: KS-1 (Glioblastoma)
How it was run: as §1

[20] = system: CAL-72 (Osteosarcoma)
How it was run: as §1

| Compound | Bliss excess [1] | Bliss excess [2] | Bliss excess [3] | Bliss excess [4] | Bliss excess [5] | Bliss excess [6] | Bliss excess [7] | Bliss excess [8] | Bliss excess [9] | Bliss excess [10] | Bliss excess [11] | Bliss excess [12] | Bliss excess [13] | Bliss excess [14] | Bliss excess [15] | Bliss excess [16] | Bliss excess [17] | Bliss excess [18] | Bliss excess [19] | Bliss excess [20] |
| --- | --- | --- | --- | --- | --- | --- | --- | --- | --- | --- | --- | --- | --- | --- | --- | --- | --- | --- | --- | --- |
| CN(CCO)CC[C@H](CSc1ccccc1)Nc1ccc(S(=O)(=O)NC(=O)c2ccc(N3CCC([C@@H](O)c4ccccc4-c4ccc(Cl)cc4)CC3)cc2)cc1S(=O)(=O)C(F)(F)F [AZD4320] + C[C@@H](Nc1cc(F)cc(F)c1)c1cc(C(=O)N(C)C)cc2c(=O)cc(N3CCOCC3)oc12 [AZD8186] (first compound max 1 µM, 7x7, partner max 3 µM) | -0.0354 | -0.0039 | 0.0121 | -0.0358 | 0.0509 | -0.0013 | 0.0149 | -0.0422 | 0.0115 | -0.014 | -0.0258 | -0.01 | -0.0541 | -0.037 | 0.0243 | 0.0019 | 0.0262 | 0.0261 | -0.0166 | – |
| CC1(C)CCC(CN2CCN(c3ccc(C(=O)NS(=O)(=O)c4ccc(NCC5CCOCC5)c([N+](=O)[O-])c4)c(Oc4cnc5[nH]ccc5c4)c3)CC2)=C(c2ccc(Cl)cc2)C1 [Venetoclax] + C[C@@H](Nc1cc(F)cc(F)c1)c1cc(C(=O)N(C)C)cc2c(=O)cc(N3CCOCC3)oc12 [AZD8186] (first compound max 1 µM, 7x7, partner max 3 µM) | -0.004 | -0.0241 | -0.009 | -0.0227 | 0.202 | -0.0408 | -0.023 | -0.0546 | -0.0069 | -0.0368 | -0.048 | -0.0118 | -0.0385 | 0.0209 | -0.0166 | -0.0558 | -0.0304 | -0.0336 | 0.0007 | -0.0042 |
| CCc1c2c(nc3ccc(O)cc13)-c1cc3c(c(=O)n1C2)COC(=O)[C@]3(O)CC [SN-38] + CN(C)CCCOc1ccc(-c2ccc3ncc4c(c3c2)n(C2CCOCC2)c(=O)n4C)cn1 [AZD0156] (first compound max 0.3 µM, 7x7, partner max 1 µM) | -0.029 | 0.0579 | 0.0993 | -0.012 | 0.0685 | -0.0078 | 0.0777 | -0.0318 | -0.0073 | -0.0059 | -0.0553 | 0.0109 | 0.0463 | 0.0636 | -0.0243 | -0.006 | 0 | 0.118 | -0.0369 | 0.0114 |
| COc1cccc(OCCCN)c1-c1cc(Nc2cnc(C#N)cn2)n[nH]1 [Prexasertib] + C[C@@H]1COCCN1C2=NC(=NC(=C2)C3(CC3)[S@](=N)(=O)C)C4=C5C=CNC5=NC=C4 [AZD6738] (first compound max 1 µM, 7x7, partner max 10 µM) | -0.033 | 0.0296 | -0.0122 | 0.0197 | 0.0584 | -0.0668 | -0.014 | -0.002 | -0.0172 | -0.0351 | 0.0689 | 0.0056 | -0.015 | 0.0077 | 0.0084 | -0.0064 | 0.0392 | -0.0311 | -0.0298 | -0.0244 |
| NC1(C(=O)N[C@@H](CCO)c2ccc(Cl)cc2)CCN(c2ncnc3[nH]ccc23)CC1 [Capivasertib] + C[C@@H]1COCCN1C2=NC(=NC(=C2)C3(CC3)[S@](=N)(=O)C)C4=C5C=CNC5=NC=C4 [AZD6738] (first compound max 10 µM, 7x7, partner max 10 µM) | -0.0747 | -0.0246 | -0.0086 | -0.011 | 0.0103 | -0.0216 | 0.0077 | -0.0119 | -0.0034 | -0.0607 | 0.0093 | -0.0884 | -0.0497 | -0.05 | -0.0499 | -0.005 | -0.0228 | -0.0137 | -0.0366 | -0.0202 |
| C[C@@H]1COCCN1c1cc(C2([S@](C)(=N)=O)CC2)nc(-c2ccnc3[nH]ccc23)n1 [AZD6738] + O=C(c1cc(Cc2n[nH]c(=O)c3ccccc23)ccc1F)N1CCN(C(=O)C2CC2)CC1 [Olaparib] (first compound max 10 µM, 7x7, partner max 10 µM) | 0.0101 | 0.0047 | 0.0196 | -0.014 | 0.018 | -0.0358 | 0.0381 | 0.0087 | -0.0176 | -0.0539 | -0.0007 | 0.0107 | 0.0283 | -0.0379 | -0.007 | -0.0578 | 0.0569 | 0.0381 | 0 | -0.0183 |
| CN(CCO)CC[C@H](CSc1ccccc1)Nc1ccc(S(=O)(=O)NC(=O)c2ccc(N3CCC([C@@H](O)c4ccccc4-c4ccc(Cl)cc4)CC3)cc2)cc1S(=O)(=O)C(F)(F)F [AZD4320] + CN(C)CCCOc1ccc(-c2ccc3ncc4c(c3c2)n(C2CCOCC2)c(=O)n4C)cn1 [AZD0156] (first compound max 1 µM, 7x7, partner max 1 µM) | 0.0037 | 0.007 | 0.0124 | -0.0102 | 0.0031 | -0.0099 | 0.0419 | -0.0276 | -0.0171 | -0.0244 | -0.028 | 0.039 | -0.0216 | -0.0238 | -0.0207 | -0.022 | -0.0129 | -0.0332 | -0.0136 | -0.0292 |
| CC1(C)CCC(CN2CCN(c3ccc(C(=O)NS(=O)(=O)c4ccc(NCC5CCOCC5)c([N+](=O)[O-])c4)c(Oc4cnc5[nH]ccc5c4)c3)CC2)=C(c2ccc(Cl)cc2)C1 [Venetoclax] + C[C@@H]1COCCN1C2=NC(=NC(=C2)C3(CC3)[S@](=N)(=O)C)C4=C5C=CNC5=NC=C4 [AZD6738] (first compound max 1 µM, 7x7, partner max 10 µM) | -0.063 | -0.0489 | -0.0453 | 0.0321 | 0.0306 | -0.0156 | -0.0024 | -0.0405 | -0.0661 | -0.0506 | -0.0303 | 0.0147 | -0.0336 | -0.0913 | -0.0357 | -0.0517 | -0.0181 | -0.0505 | -0.0368 | -0.0313 |
| Cn1cnc2c(F)c(Nc3ccc(Br)cc3Cl)c(C(=O)NOCCO)cc21 [Selumetinib] + C=CCn1c(=O)c2cnc(Nc3ccc(N4CCN(C)CC4)cc3)nc2n1-c1cccc(C(C)(C)O)n1 [AZD1775] (first compound max 10 µM, partner max 1 µM) | -0.0275 | -0.0194 | -0.0452 | -0.0464 | 0.0229 | -0.0331 | -0.0806 | -0.046 | -0.11 | -0.0335 | 0.016 | -0.052 | 0.0209 | -0.0066 | -0.0399 | 0.0366 | -0.0509 | 0.0123 | -0.0037 | -0.117 |
| C=CCn1c(=O)c2cnc(Nc3ccc(N4CCN(C)CC4)cc3)nc2n1-c1cccc(C(C)(C)O)n1 [AZD1775] + O=C(c1cc(Cc2n[nH]c(=O)c3ccccc23)ccc1F)N1CCN(C(=O)C2CC2)CC1 [Olaparib] (first compound max 1 µM, partner max 10 µM) | -0.0594 | -0.0073 | 0.0424 | -0.121 | 0.0063 | -0.0745 | 0.0042 | -0.0143 | -0.0486 | -0.0833 | -0.071 | -0.0316 | -0.0199 | -0.025 | -0.0216 | -0.0558 | -0.0107 | -0.0389 | -0.0097 | -0.0871 |
| CC1(C)CCC(CN2CCN(c3ccc(C(=O)NS(=O)(=O)c4ccc(NCC5CCOCC5)c([N+](=O)[O-])c4)c(Oc4cnc5[nH]ccc5c4)c3)CC2)=C(c2ccc(Cl)cc2)C1 [Venetoclax] + CN(C)CCCOc1ccc(-c2ccc3ncc4c(c3c2)n(C2CCOCC2)c(=O)n4C)cn1 [AZD0156] (first compound max 1 µM, 7x7, partner max 1 µM) | -0.0043 | -0.0064 | 0.0028 | 0.0067 | 0.108 | -0.0166 | 0.0265 | -0.081 | 0.0093 | -0.0466 | -0.02 | -0.0515 | -0.0214 | -0.0402 | -0.0165 | -0.0186 | 0.0028 | -0.0214 | -0.007 | -0.0002 |
| CCN(CCO)CCCOc1ccc2c(Nc3cc(CC(=O)Nc4cccc(F)c4)[nH]n3)ncnc2c1 [AZD2811] + C[C@@H]1COCCN1C2=NC(=NC(=C2)C3(CC3)[S@](=N)(=O)C)C4=C5C=CNC5=NC=C4 [AZD6738] (first compound max 1 µM, 7x7, partner max 10 µM) | -0.0706 | -0.0199 | -0.0399 | -0.0229 | -0.0288 | -0.0514 | -0.0587 | 0.006 | 0.0002 | 0.0116 | -0.0367 | -0.018 | -0.0111 | -0.0665 | -0.142 | -0.0184 | -0.0453 | -0.0108 | -0.0711 | -0.0863 |
| NC1(C(=O)N[C@@H](CCO)c2ccc(Cl)cc2)CCN(c2ncnc3[nH]ccc23)CC1 [Capivasertib] + COc1nnc2ccc(N3CCC(c4ccc(OCCN5CCN(C)C(=O)[C@H]5C)cc4)CC3)nn12 [AZD5153] (first compound max 10 µM, 7x7, partner max 1 µM) | 0.0169 | 0.051 | -0.0155 | 0.115 | -0.0116 | -0.0032 | -0.0386 | 0.0016 | 0.0666 | 0.0079 | 0.007 | 0.0342 | -0.0542 | -0.0923 | 0.0333 | 0.02 | -0.0061 | -0.0212 | -0.0211 | 0.005 |
| CN(CCO)CC[C@H](CSc1ccccc1)Nc1ccc(S(=O)(=O)NC(=O)c2ccc(N3CCC([C@@H](O)c4ccccc4-c4ccc(Cl)cc4)CC3)cc2)cc1S(=O)(=O)C(F)(F)F [AZD4320] + Cn1cnc2c(F)c(Nc3ccc(Br)cc3Cl)c(C(=O)NOCCO)cc21 [Selumetinib] (first compound max 1 µM, 7x7, partner max 3 µM) | 0.0402 | 0.0749 | -0.0061 | -0.0786 | 0.0571 | -0.0035 | 0.0944 | -0.011 | 0.0929 | 0.0523 | 0.0082 | -0.0507 | 0.0021 | -0.0491 | 0.0225 | -0.012 | 0.0069 | 0.072 | -0.0051 | -0.0089 |
